Measurements reported in patent US12268702B2, “Antitumor pharmaceutical composition comprising azvudine and chemotherapeutic agent” (HENAN GENUINE BIOTECH CO., LTD., priority 2023, dated 2025).

System: A2058 xenograft tumor model
Experiment: Human melanoma A2058 cell subcutaneous xenograft tumor model
Type: in vivo
Details: azvudine 1 mg/kg, dacarbazine 60 mg/kg, combination 1 + 60 mg/kg; for Tumor volume (mm^3) on the 14th day: 14th day of administration
Experimental: Human melanoma cells A2058 (Cat. No.: CRL-11147) were cultured in vitro as a monolayer in DMEM medium containing 10% fetal bovine serum, 100 U/mL penicillin and 100 μg/mL streptomycin, in a 37° C. and 5% CO2 incubator. The cells were routinely digested with trypsin-EDTA and passaged twice a week. When the cell saturation reached 80%-90% and the cell number achieved the requirement, the cells were collected, counted and inoculated.
0.2 mL (5×10^6) of A2058 cells were added with Matrigel, and the mixture was subcutaneously inoculated on the right back of each mouse. The grouping administration was started when the average tumor volume reached about 136 mm^3.

[1] = based on tumor volume, 14th day

Compound: CN(C)/N=N/c1[nH]cnc1C(N)=O [Dacarbazine, dacarbazine]
- Tumor volume (mm^3) on the 14th day: 1,255 ± 186 mm^3
- Tumor volume (mm^3) on the 14th day (listed as dacarbazine): 1255 mm^3
- T/C (%) [1]: 44.77%
- TGI (%) [1]: 56.74%
